According to patent US20080119515A1, “Heterocyclic Kinase Inhibitors: Methods of Use and Synthesis” (priority 2003, published 2008):

Each compound was assayed against T1, ZAP-70 (Homo sapiens, UniProt P43403) (assay: DELFIA assay (ZAP-70 kinase, phosphorylation of biotinylated poly(glu,tyr))). Details: ZAP-70 DELFIA, class symbols; read-out: Activity (IC50 in vitro).
T1 sequence (P43403 1-619): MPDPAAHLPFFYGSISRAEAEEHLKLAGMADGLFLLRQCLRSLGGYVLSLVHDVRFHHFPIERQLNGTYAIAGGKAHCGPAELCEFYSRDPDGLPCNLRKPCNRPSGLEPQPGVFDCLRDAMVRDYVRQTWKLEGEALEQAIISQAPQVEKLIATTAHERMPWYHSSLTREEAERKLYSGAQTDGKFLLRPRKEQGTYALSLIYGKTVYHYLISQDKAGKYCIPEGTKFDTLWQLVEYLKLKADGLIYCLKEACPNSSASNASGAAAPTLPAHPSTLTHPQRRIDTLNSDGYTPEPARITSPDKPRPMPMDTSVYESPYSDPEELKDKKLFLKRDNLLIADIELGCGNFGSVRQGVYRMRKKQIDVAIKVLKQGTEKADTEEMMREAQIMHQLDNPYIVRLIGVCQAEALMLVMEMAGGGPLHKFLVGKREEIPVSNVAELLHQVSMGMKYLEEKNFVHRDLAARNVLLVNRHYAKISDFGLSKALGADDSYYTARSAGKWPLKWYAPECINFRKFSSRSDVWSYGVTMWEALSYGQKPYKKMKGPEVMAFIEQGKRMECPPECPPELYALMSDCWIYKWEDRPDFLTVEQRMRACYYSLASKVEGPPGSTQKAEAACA
Format: biochemical
Description: Before initiation of kinase reactions, compounds were pre-incubated with ZAP-70. Pre-incubation reactions contained 62.5 mM Mops pH 7.0, 12.5 mM MgCl2, 12.5% glycerol, 3.1 nM ZAP-70, 62.5 nM biotinylated poly(glu,Tyr), 0.1 mg/ml BSA, 6.25% DMSO and […] compound in a total volume of […]. After a 10 minute room temperature incubation, 10 ml of 5 mM ATP was added to start the reaction. Reactions were incubated at room temperature for 30 minutes then terminated by addition of 5 ml 500 mM EDTA. The amount of phosphate transferred to biotinylated poly(glu,tyr) was measured using the Dissociation Enhanced Lanthanide Fluorescence Immuno-assay (DELFIA) from Perkin Elmer according to manufacturers protocol. Briefly, biotinylated […] was captured on streptavidin coated plates, washed twice, then incubated with Europium labeled-anti-phosphotyrosine antibody. Free antibody was removed with six washes, Europium was dissociated from the antibody, and Europium fluorescence was measured at using an excitation wavelength of 340 nm and an emission wavelength of 615 nm.

Row | SMILES | IC50 [µM]
1 | CN(CCc1cccs1)c1cc(C(=O)N2CCC[C@H]2CN2CCCC2)c2cc(-c3ccc(C#N)cc3)ccc2n1 [Compound 273] | > 10
2 | O=C(c1cc(NCc2ccc(C(F)(F)F)cc2)nc2ccc(-c3ccc(C(F)(F)F)cc3)cc12)N1CCC[C@H]1CN1CCCC1 [Compound 345] | > 10
3 | O=C(c1cc(NCc2ccc(C(F)(F)F)cc2)nc2ccc(-c3cccc(CO)c3)cc12)N1CCC[C@H]1CN1CCCC1 [Compound 416] | > 10
4 | O=C(c1cc(Cl)nc(Cl)c1)N1CCC[C@H]1CN1CCCC1 [Compound 113] | > 10
5 | O=C(c1cc(NCc2ccc(C(F)(F)F)cc2)nc2ccc(-c3cccs3)cc12)N1CCC[C@H]1CN1CCCC1 [Compound 293] | 1 to 10
6 | N=C(NC1CCC1)[C@@H]1CCCN1C(=O)c1cc(NCc2ccc(C(F)(F)F)cc2)nc2ccc(-c3ccc4c(c3)OCO4)cc12 [Compound 378] | > 10
7 | CN(CCc1ccccc1)c1cc(C(=O)N2CCC[C@H]2CN2CCCC2)cc(N(C)c2ccccc2)n1 [Compound 371] | > 10
8 | C[C@H](c1ccccc1)N(C)c1cc(C(=O)N2CCC[C@H]2CN2CCCC2)c2cc(-c3ccc(C#N)cc3)ccc2n1 [Compound 200] | > 10
9 | C[C@H](Nc1cc(C(=O)N2CCC[C@H]2CN2CCCC2)c2cc(-c3ccc(C#N)cc3)ccc2n1)c1ccccc1 [Compound 176] | > 10
10 | N#Cc1ccc(-c2ccc3nc(NCc4ccc(-c5ccccc5)cc4)cc(C(=O)N4CCC[C@H]4CN4CCCC4)c3c2)cc1 [Compound 252] | > 10
11 | O=C(c1cc(N(CCO)Cc2ccccc2)nc2ccc(-c3ccc4c(c3)OCO4)cc12)N1CCC[C@H]1CN1CCCC1 [Compound 76] | < 1
12 | O=C(c1cc(Nc2ccccn2)nc2ccc(-c3ccc4c(c3)OCO4)cc12)N1CCC[C@H]1CN1CCCC1 [Compound 19] | < 1
13 | O=C(c1cc(Cc2ccc(N3CCC4(CC3)CNC4)cc2)nc2ccc(-c3ccc4c(c3)OCO4)cc12)N1CCCC1CN1CCCC1 (stereo not drawn) [Compound 445] | < 1
14 | O=C(c1cc(NCc2ccc(C(F)(F)F)cc2)nc2ccc(-c3ccc4c(c3)OC(F)(F)C(F)(F)O4)cc12)N1CCC[C@H]1CN1CCCC1 [Compound 125] | < 1
15 | N#Cc1ccc(-c2ccc3nc(NCc4ccc(-c5cccs5)cc4)cc(C(=O)N4CCC[C@H]4CN4CCCC4)c3c2)cc1 [Compound 234] | > 10
16 | N#Cc1ccc(-c2ccc3nc(NCCc4ccccc4F)cc(C(=O)N4CCC[C@H]4CN4CCCC4)c3c2)cc1 [Compound 191] | > 10
17 | N#Cc1ccc(-c2ccc3nc(N4CCCC4c4ccccc4)cc(C(=O)N4CCC[C@H]4CN4CCCC4)c3c2)cc1 (stereo partly drawn) [Compound 257] | > 10
18 | Cc1noc(C)c1-c1ccc2nc(NCc3ccc(C(F)(F)F)cc3)cc(C(=O)N3CCC[C@H]3CN3CCCC3)c2c1 [Compound 338] | > 10
19 | N#Cc1ccc(-c2ccc3nc(NCc4ccc(F)cc4F)cc(C(=O)N4CCC[C@H]4CN4CCCC4)c3c2)cc1 [Compound 198] | > 10
20 | N#Cc1ccc(-c2ccc3nc(NCc4cc(C(F)(F)F)ccc4F)cc(C(=O)N4CCC[C@H]4CN4CCCC4)c3c2)cc1 [Compound 238] | > 10
21 | N#Cc1ccc(-c2ccc3nc(NCc4cccc(O)c4)cc(C(=O)N4CCC[C@H]4CN4CCCC4)c3c2)cc1 [Compound 321] | 1 to 10
22 | CN(Cc1cccc2ccccc12)c1cc(C(=O)N2CCC[C@H]2CN2CCCC2)c2cc(-c3ccc(C#N)cc3)ccc2n1 [Compound 246] | > 10
23 | COc1cccc([C@H](C)Nc2cc(C(=O)N3CCC[C@H]3CN3CCCC3)c3cc(-c4ccc(C#N)cc4)ccc3n2)c1 [Compound 204] | > 10
24 | C[Si](C)(C)CCc1cc(C(=O)N2CCC[C@H]2CN2CCCC2)c2cc(-c3ccc4c(c3)OCO4)ccc2n1 [Compound 408] | > 10
25 | O=C(NCc1ccc(C(F)(F)F)cc1)c1cc(NCc2ccc(C(F)(F)F)cc2)nc2ccc(-c3ccc4c(c3)OCO4)cc12 [Compound 111] | > 10
26 | O=C(c1cc(CCc2ccccc2)nc2ccc(-c3ccc4c(c3)OCO4)cc12)N1CCC[C@H]1CN1CCCC1 [Compound 134] | 1 to 10
27 | O=C(c1cc(NCc2ccc(C(F)(F)F)cc2)nc2ccc(-c3cncnc3)cc12)N1CCC[C@H]1CN1CCCC1 [Compound 332] | > 10

Row | SMILES | IC50 [µM]
28 | O=C(c1cc(NCc2ccc(C(F)(F)F)cc2)nc2ccc(-c3ccc4c(c3)OCO4)cc12)N1CCC[C@H]1CO [Compound 362] | > 10
29 | CN(CCc1ccccc1)c1cc(C(=O)N2CCC[C@H]2CN2CCCC2)cc(N(C)Cc2ccccc2)n1 [Compound 364] | 1 to 10
30 | O=C(c1cc(N2CCOCC2)nc2ccc(-c3ccc4c(c3)OCO4)cc12)N1CCC[C@H]1CN1CCCC1 [Compound 62] | 1 to 10
31 | N#Cc1ccc(-c2ccc3nc(N4CCC(c5ccccc5F)C4)cc(C(=O)N4CCC[C@H]4CN4CCCC4)c3c2)cc1 (stereo partly drawn) [Compound 262] | > 10
32 | CCN(Cc1ccccc1)c1cc(C(=O)N2CCC[C@H]2CN2CCCC2)c2cc(-c3ccc4c(c3)OCO4)ccc2n1 [Compound 68] | < 1
33 | N#Cc1ccc(-c2ccc3nc(NCc4ccc(Cl)cc4Cl)cc(C(=O)N4CCC[C@H]4CN4CCCC4)c3c2)cc1 [Compound 166] | > 10
34 | O=C(c1cc(NCc2ccc(C(F)(F)F)cc2)nc2ccc(-c3ccc4occc4c3)cc12)N1CCC[C@H]1CN1CCCC1 [Compound 349] | < 1
35 | N#Cc1ccc(-c2ccc3nc(NCc4ccccc4N4CCCCC4)cc(C(=O)N4CCC[C@H]4CN4CCCC4)c3c2)cc1 [Compound 235] | > 10
36 | Nc1cc(C(=O)N2CCC[C@H]2CN2CCCC2)c2cc(-c3ccc4c(c3)OCO4)ccc2n1 [Compound 11] | 1 to 10
37 | C[C@H](Nc1cc(C(=O)N2CCC[C@H]2CN2CCCC2)c2cc(-c3ccc4c(c3)OCO4)ccc2n1)c1ccc(Cl)cc1 [Compound 331] | < 1
38 | O=C(Cc1cc(C(=O)N2CCC[C@H]2CN2CCCC2)c2cc(-c3ccc4c(c3)OCO4)ccc2n1)c1ccc(C(F)(F)F)cc1 [Compound 431] | 1 to 10
39 | CN(Cc1ccc(Cl)c(Cl)c1)c1cc(C(=O)N2CCC[C@H]2CN2CCCC2)c2cc(-c3ccc4c(c3)OCO4)ccc2n1 [Compound 77] | < 1
40 | CCN(CC)C[C@@H]1CCCN1C(=O)c1cc(NCc2ccccc2)nc2ccc(-c3ccc4c(c3)OCO4)cc12 [Compound 81] | 1 to 10
41 | O=C(c1cc(NCc2ccc(C(F)(F)F)cc2)nc2ccc(-c3ccc4c(c3)OCO4)cc12)N1CCC[C@H]1CNC1CCC1 [Compound 359] | < 1
42 | O=C(NCc1ccc(Cl)cc1)c1cc(C(=O)N2CCC[C@H]2CN2CCCC2)c2cc(-c3ccc4c(c3)OCO4)ccc2n1 [Compound 140] | < 1
43 | Nc1ccc(-c2ccc3nc(NCc4ccc(C(F)(F)F)cc4)cc(C(=O)N4CCC[C@H]4CN4CCCC4)c3c2)cc1 [Compound 424] | > 10
44 | O=C(c1cc(Cc2ccc(Cl)cc2)nc2ccc(-c3ccc4c(c3)OCO4)cc12)N1CCC[C@H]1CN1CCCC1 [Compound 400] | < 1
45 | Clc1cc(CN2CCC[C@H]2CN2CCCC2)c2cc(-c3ccc4c(c3)OCO4)ccc2n1 [Compound 93] | > 10
46 | O=C(c1cc(OCc2ccc(Cl)cc2)nc2ccc(-c3ccc4c(c3)OCO4)cc12)N1CCC[C@H]1CN1CCCC1 [Compound 99] | < 1
47 | CCCCCc1ccc(CCc2cc(C(=O)N3CCC[C@H]3CN3CCCC3)c3cc(-c4ccc5c(c4)OCO5)ccc3n2)cc1 [Compound 398] | < 1
48 | CC(Nc1cc(C(=O)N2CCC[C@H]2CN2CCCC2)c2cc(-c3ccc(C#N)cc3)ccc2n1)c1ccc(Br)cc1 (stereo partly drawn) [Compound 222] | > 10
49 | CC(=O)N1CCN(c2cc(C(=O)N3CCC[C@H]3CN3CCCC3)c3cc(-c4ccc5c(c4)OCO5)ccc3n2)CC1 [Compound 58] | 1 to 10
50 | N#Cc1ccc(-c2ccc3nc(NCC4(c5ccc(Cl)cc5)CC4)cc(C(=O)N4CCC[C@H]4CN4CCCC4)c3c2)cc1 [Compound 260] | > 10
51 | O=C(c1cc(NCc2ccc(C(F)(F)F)cc2)nc2ccc(-c3ccc4c(c3)OCO4)cc12)N1CCCC[C@H]1CN1CCCC1 [Compound 375] | 1 to 10
52 | CN(Cc1ccccc1)c1cc(C(=O)N2CCC[C@H]2CN2CCCC2)c2cc(-c3ccc(C#N)cc3)ccc2n1 [Compound 150] | > 10
53 | C[C@H]1CCN(C(=O)c2cc(NCc3ccc(C(F)(F)F)cc3)nc3ccc(-c4ccc5c(c4)OCO5)cc23)[C@@H]1CN1CCCC1 [Compound 147] | 1 to 10
54 | C[C@H](CNc1cc(C(=O)N2CCC[C@H]2CN2CCCC2)c2cc(-c3ccc(C#N)cc3)ccc2n1)c1ccccc1 [Compound 187] | > 10
